{
  "source": "patent US8912167B2",
  "about": "“Heparin-based compositions and methods for the inhibition of metastasis” (priority 2011, dated 2014)",
  "origin": "cited, not measured here",
  "settings": "under physiological conditions",
  "data": [
    {"substance": "tetra-[5-(L)-lysyl-amino-O-methylsalicylamide]", "values": [
      {"measurement": "binding to heparin", "result": "bind heparin tightly and essentially irreversibly"}
    ]}
  ]
}
